In brackets after ≈: the same amount, converted by molar mass. Several values for one entry are separate records, joined by “and”; a condition that tells them apart may be missing. Equal values may be shown once.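 In this assay, cells in 96-well plates receive the compound at five concentrations for 48 hours. Endpoints are linearly interpolated between the surrounding concentrations. At the GI50, growth is halved. Definition used: TGI = concentration required for complete inhibition of growth.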
Assays:
Assay in all cases: inhibition of tumour cell growth, NCI panel, 48 h
EKVX NSCLC = test system: EKVX NSCLC
SN12C renal = test system: SN12C renal
SF-539 CNS = test system: SF-539 CNS
HOP-92 NSCLC = test system: HOP-92 NSCLC
NCI-H522 lung = test system: NCI-H522 lung
MCF7 breast = test system: MCF7 breast
OVCAR-3 ovarian = test system: OVCAR-3 ovarian
MALME-3M melanoma = test system: MALME-3M melanoma
SNB-19 CNS = test system: SNB-19 CNS
M14 melanoma = test system: M14 melanoma

`COC(=O)C(C)NP(=O)(OCc1cccc(Cn2cnc3c(N)ncnc32)c1)Oc1ccccc1` (stereo unspecified) gave a GI50 (EKVX NSCLC) greater than 100 µM, a TGI (EKVX NSCLC) greater than 100 µM and a GI50 (SN12C renal) greater than 100 µM. It also gave a TGI (SN12C renal) greater than 100 µM, a GI50 (SF-539 CNS) greater than 100 µM and a TGI (SF-539 CNS) greater than 100 µM. The GI50 (HOP-92 NSCLC) was 54.1 µM, the TGI (HOP-92 NSCLC) was greater than 100 µM and the GI50 (NCI-H522 lung) was 36 µM. The TGI (NCI-H522 lung) was greater than 100 µM, the GI50 (MCF7 breast) was 14.9 µM and the TGI (MCF7 breast) was 66.6 µM. The GI50 (OVCAR-3 ovarian) was 43 µM, the TGI (OVCAR-3 ovarian) was greater than 100 µM and the GI50 (MALME-3M melanoma) was 68.2 µM. It also gave a TGI (MALME-3M melanoma) greater than 100 µM.

For `C/C=C(/CCC1NCCc2c1[nH]c1ccccc21)[Si](C)(C)C` (stereo unspecified), the TGI (EKVX NSCLC) was > 100 µM and 22.3 µM, the TGI (SN12C renal) was > 100 µM and 16.9 µM and the TGI (SF-539 CNS) was > 100 µM and 13.1 µM. For the same molecule, the GI50 (SNB-19 CNS) was > 100 µM and 13.9 µM, the TGI (SNB-19 CNS) was > 100 µM and 27.3 µM and the GI50 (HOP-92 NSCLC) was 27 µM and 2.9 µM. The TGI (HOP-92 NSCLC) was 90.1 µM and 11.9 µM and the TGI (OVCAR-3 ovarian) was > 100 µM and 13.9 µM.

Molecule `O=c1c(-c2ccccc2)c(SCCCN2CCCCC2)n(-c2ccccc2)c(=S)n1-c1ccccc1` has a TGI (EKVX NSCLC) greater than 100 µM, a TGI (SF-539 CNS) of 30.4 µM and a TGI (HOP-92 NSCLC) of 30.1 µM. The TGI (NCI-H522 lung) was 41.1 µM, the TGI (MCF7 breast) was 31.4 µM and the TGI (OVCAR-3 ovarian) was 34.3 µM. It also gave a TGI (MALME-3M melanoma) of 37.7 µM.

`O=c1[nH]c2ccccc2c2oc3ccccc3c12` gave a TGI (EKVX NSCLC) greater than 100 µM, a TGI (SN12C renal) greater than 100 µM and a TGI (SF-539 CNS) greater than 100 µM. The TGI (SNB-19 CNS) was greater than 100 µM, the TGI (HOP-92 NSCLC) was greater than 100 µM and the TGI (NCI-H522 lung) was greater than 100 µM. For the same molecule, the TGI (M14 melanoma) was greater than 100 µM, the TGI (MCF7 breast) was greater than 100 µM and the TGI (OVCAR-3 ovarian) was greater than 100 µM. The TGI (MALME-3M melanoma) was greater than 100 µM.

For `COC(=O)C1=C(O)C(C(=O)OC)[C@@]2(O)[C@@H](C(=O)OC)[C@H](C)C[C@@H]1[C@@H]2C(=O)OC` (stereo partly specified), the TGI (EKVX NSCLC) was 69.6 µM, the TGI (SN12C renal) was greater than 100 µM and the TGI (SF-539 CNS) was 34.1 µM. It also gave a TGI (SNB-19 CNS) greater than 100 µM, a TGI (NCI-H522 lung) of 50.7 µM and a TGI (M14 melanoma) of 39.9 µM. For the same molecule, the TGI (MCF7 breast) was greater than 100 µM, the TGI (OVCAR-3 ovarian) was 40.2 µM and the TGI (MALME-3M melanoma) was greater than 100 µM.

Work on `NCCCCNOCCCN` yielded a TGI (EKVX NSCLC) greater than 100 µM, a TGI (SN12C renal) greater than 100 µM and a TGI (SF-539 CNS) greater than 100 µM. For the same molecule, the TGI (SNB-19 CNS) was greater than 100 µM, the TGI (HOP-92 NSCLC) was greater than 100 µM and the TGI (NCI-H522 lung) was greater than 100 µM. For the same molecule, the TGI (M14 melanoma) was greater than 100 µM, the TGI (MCF7 breast) was greater than 100 µM and the TGI (OVCAR-3 ovarian) was greater than 100 µM. It also gave a TGI (MALME-3M melanoma) greater than 100 µM.

With `CC(C)(CCCCC(C)(C)NC1=NCCO1)NC1=NCCO1` the TGI (EKVX NSCLC) was greater than 10 µM, the TGI (SN12C renal) was greater than 10 µM and the TGI (SF-539 CNS) was greater than 10 µM. For the same molecule, the TGI (SNB-19 CNS) was greater than 10 µM, the TGI (NCI-H522 lung) was greater than 10 µM and the TGI (M14 melanoma) was greater than 10 µM. For the same molecule, the TGI (MCF7 breast) was greater than 10 µM, the TGI (OVCAR-3 ovarian) was greater than 10 µM and the TGI (MALME-3M melanoma) was greater than 10 µM.

In the case of `CC(C)(C)OC(=O)CC(NC(=O)OCc1ccccc1)NC(=O)OC(C)(C)C` (stereo unspecified), the GI50 (EKVX NSCLC) was 38.8 µg/mL, the GI50 (SN12C renal) was 51.9 µg/mL and the GI50 (SNB-19 CNS) was 76.2 µg/mL. For the same molecule, the GI50 (HOP-92 NSCLC) was 69.2 µg/mL, the GI50 (NCI-H522 lung) was 32.9 µg/mL and the GI50 (M14 melanoma) was 56.8 µg/mL (≈ 144 µM). For the same molecule, the GI50 (MCF7 breast) was 44.1 µg/mL, the GI50 (OVCAR-3 ovarian) was 62.7 µg/mL and the GI50 (MALME-3M melanoma) was 46 µg/mL.

Molecule `C=CCN1C(=O)NC(=O)/C(=C/c2c3ccccc3cc3ccccc23)C1=O` has a TGI (EKVX NSCLC) of 48.8 µM, a TGI (SF-539 CNS) of 38.1 µM and a TGI (SNB-19 CNS) of 47.7 µM. For the same molecule, the TGI (HOP-92 NSCLC) was 54.4 µM, the TGI (NCI-H522 lung) was 44.8 µM and the TGI (M14 melanoma) was 37.2 µM. For the same molecule, the TGI (OVCAR-3 ovarian) was 42.3 µM and the TGI (MALME-3M melanoma) was 39.3 µM.
